Here are results for 30 compounds from a polymer gas permeability compilation.

Structures are written as SMILES.

Consider `*C(=C(*)c1ccc2c(c1)CCC2)c1ccccc1` (repeat unit), for which the CH4 permeability amounted to 60 Barrer, the CO2 permeability was 390 Barrer, the H2 permeability stood at 360 Barrer and the N2 permeability was found to be 30 Barrer. The O2 permeability was determined as 86 Barrer.
In the case of `*C(=C(*)c1ccc2c(c1)Cc1ccccc1-2)c1ccc([Si](C)(C)C)cc1` (repeat unit), the CH4 permeability stood at 2000 Barrer, the CO2 permeability turned out to be 6450 Barrer, the H2 permeability amounted to 3100 Barrer and the N2 permeability stood at 950 Barrer. The compound further returned an O2 permeability of 1650 Barrer.
The matching figures for `*C(=C(*)c1ccc2c(c1)Cc1ccccc1-2)c1ccccc1` (repeat unit): 2400 Barrer, 8500 Barrer, 3650 Barrer, 1300 Barrer and 2150 Barrer.
For `*C(=C(*)c1cccc(O[Si](C)(C)C(C)(C)C)c1)c1ccc(C(C)(C)C)cc1` (repeat unit), in that order: 3300 Barrer, 7200 Barrer, 3900 Barrer, 1300 Barrer and 2100 Barrer.
`*C(=C(*)c1cccc(O[Si](C)(C)C(C)(C)C)c1)c1ccc([Si](C)(C)C)cc1` (repeat unit) registered a CH4 permeability of 1100 Barrer, a CO2 permeability of 2900 Barrer, an H2 permeability of 1600 Barrer and an N2 permeability of 430 Barrer. The compound also had an O2 permeability of 810 Barrer.
In the case of `*C(=C(*)c1cccc([Si](C)(C)C)c1)c1ccccc1` (repeat unit), the CH4 permeability came to 1500 Barrer, the CO2 permeability was 4700 Barrer, the H2 permeability worked out at 2100 Barrer and the N2 permeability stood at 610 Barrer. The O2 permeability amounted to 1200 Barrer.
`*C(=O)c1ccc(C(c2ccc3c(c2)C(=O)n2c-3nc3cc4nc(*)n(*)c4cc32)(C(F)(F)F)C(F)(F)F)cc1*` (repeat unit) displayed a CH4 permeability of 0.911 Barrer, a CO2 permeability of 54 Barrer, an N2 permeability of 2.58 Barrer and an O2 permeability of 15.2 Barrer.
Regarding `*C(=O)c1ccc(C2(c3ccc(C(=O)c4ccc(Oc5ccc(C(=O)c6ccc(C(=O)c7ccc(Oc8ccc(*)cc8)cc7)cc6)cc5)cc4)cc3)OC(=O)c3ccccc32)cc1` (repeat unit), the CH4 permeability is 0.069 Barrer, the CO2 permeability is 2.14 Barrer, the H2 permeability is 7.5 Barrer and the N2 permeability turned out to be 0.0729 Barrer. Moreover, the O2 permeability worked out at 0.51 Barrer.
`*C(C)=C(*)C(C)C` (repeat unit) registered a CH4 permeability of 2690 Barrer, a CO2 permeability of 10700 Barrer, an H2 permeability of 5720 Barrer and an N2 permeability of 1250 Barrer. For the same compound, the O2 permeability amounted to 2700 Barrer.
Turning to `*c1ccc(Oc2ccc(N3C(=O)c4ccc([Si](C)(C)c5ccc6c(c5)C(=O)N(*)C6=O)cc4C3=O)cc2)cc1` (repeat unit), the CH4 permeability is 0.161 Barrer, the CO2 permeability stood at 3.31 Barrer, the H2 permeability came to 9.83 Barrer and the N2 permeability came out at 0.104 Barrer. For the same compound, the O2 permeability was found to be 0.636 Barrer.
The compound `*c1ccc(Oc2ccc(Oc3ccc(Oc4ccc(N5C(=O)c6ccc(-c7ccc8c(c7)C(=O)N(*)C8=O)cc6C5=O)cc4)cc3)cc2)cc1` (repeat unit) registered a CH4 permeability of 0.0305 Barrer, a CO2 permeability of 1.25 Barrer, an N2 permeability of 0.0392 Barrer and an O2 permeability of 0.256 Barrer.
For `*c1ccc(Oc2ccc(S(=O)(=O)c3ccc(Oc4ccc(N5C(=O)c6ccc(-c7ccc8c(c7)C(=O)N(*)C8=O)cc6C5=O)cc4)cc3)cc2)cc1` (repeat unit), the CH4 permeability worked out at 0.0397 Barrer, the CO2 permeability stood at 1.85 Barrer, the N2 permeability was 0.0544 Barrer and the O2 permeability is 0.368 Barrer.
Take `*c1ccc(Oc2ccc3ccccc3c2-c2c(Oc3ccc(N4C(=O)c5ccc(C(c6ccc7c(c6)C(=O)N(*)C7=O)(C(F)(F)F)C(F)(F)F)cc5C4=O)cc3)ccc3ccccc23)cc1` (repeat unit): the CH4 permeability came out at 0.22 Barrer, the CO2 permeability came to 15 Barrer, the H2 permeability was 21.1 Barrer and the N2 permeability came to 0.4 Barrer. For the same compound, the O2 permeability came out at 2.56 Barrer.
On to `*c1ccc(Oc2cccc(N3C(=O)c4ccc(C(c5ccc6c(c5)C(=O)N(*)C6=O)(C(F)(F)F)C(F)(F)F)cc4C3=O)c2)cc1` (repeat unit), for which the CH4 permeability is 0.125 Barrer, the CO2 permeability came to 6.11 Barrer, the H2 permeability amounted to 23.7 Barrer and the N2 permeability was 0.259 Barrer. This compound also came in with an O2 permeability of 1.57 Barrer.
The compound `*c1ccc(Sc2ccc(N3C(=O)c4ccc(C(c5ccc6c(c5)C(=O)N(*)C6=O)(C(F)(F)F)C(F)(F)F)cc4C3=O)cc2)cc1` (repeat unit) returned a CH4 permeability of 0.66 Barrer, a CO2 permeability of 23.1 Barrer, an N2 permeability of 0.87 Barrer and an O2 permeability of 4.66 Barrer.
`*c1ccc(Sc2ccc(Sc3ccc(N4C(=O)c5ccc(C(c6ccc7c(c6)C(=O)N(*)C7=O)(C(F)(F)F)C(F)(F)F)cc5C4=O)cc3)cc2)cc1` (repeat unit) had a CH4 permeability of 0.28 Barrer, a CO2 permeability of 8.92 Barrer, an N2 permeability of 0.34 Barrer and an O2 permeability of 1.77 Barrer.
Compound `*c1ccc(Sc2ccc(Sc3ccc(Sc4ccc(Sc5ccc(N6C(=O)c7ccc(C(c8ccc9c(c8)C(=O)N(*)C9=O)(C(F)(F)F)C(F)(F)F)cc7C6=O)cc5)cc4)cc3)cc2)cc1` (repeat unit) came in with a CH4 permeability of 0.26 Barrer, a CO2 permeability of 6.62 Barrer, an N2 permeability of 0.29 Barrer and an O2 permeability of 1.46 Barrer.
In the case of `*c1ccc2c(-c3c(O)ccc4cc(N5C(=O)c6ccc(C(=O)c7ccc8c(c7)C(=O)N(*)C8=O)cc6C5=O)ccc34)c(O)ccc2c1` (repeat unit), the CH4 permeability came to 0.06 Barrer, the CO2 permeability came out at 3.21 Barrer, the H2 permeability was 4.52 Barrer and the N2 permeability amounted to 0.11 Barrer. The compound also showed an O2 permeability of 0.76 Barrer.
`*c1ccc2c(-c3c(OC(C)=O)ccc4cc(N5C(=O)c6ccc(C(c7ccc8c(c7)C(=O)N(*)C8=O)(C(F)(F)F)C(F)(F)F)cc6C5=O)ccc34)c(OC(C)=O)ccc2c1` (repeat unit) displayed a CH4 permeability of 0.12 Barrer, a CO2 permeability of 5.05 Barrer, an H2 permeability of 6.56 Barrer and an N2 permeability of 0.23 Barrer. The same compound showed an O2 permeability of 1.19 Barrer.
The matching figures for `*c1ccc2c(c1)-c1nc3ccc(-c4ccc5c(c4)nc4n5C(=O)c5cc(C(c6ccc7c(c6)C(=O)N(*)C7=O)(C(F)(F)F)C(F)(F)F)ccc5-4)cc3n1C2=O` (repeat unit): 8.1 Barrer, 294 Barrer, 376 Barrer, 13 Barrer and 65 Barrer.
The matching figures for `*c1ccc2c(c1)C1(CC2(C)C)CC(C)(C)c2ccc(N3C(=O)c4cc5c(cc4C3=O)C3(CC(C)(C)c4cc6c(cc43)C(=O)N(*)C6=O)CC5(C)C)cc21` (repeat unit): 129 Barrer, 1520 Barrer, 624 Barrer, 65 Barrer and 208 Barrer.
The compound `*c1ccc2c(c1)C1c3ccccc3C2c2ccc(N3C(=O)c4ccc(C(c5ccc6c(c5)C(=O)N(*)C6=O)(C(F)(F)F)C(F)(F)F)cc4C3=O)cc21` (repeat unit) had a CH4 permeability of 3.65 Barrer, a CO2 permeability of 131 Barrer, an H2 permeability of 212 Barrer and an N2 permeability of 5.32 Barrer. The compound further yielded an O2 permeability of 28.1 Barrer.
In the case of `*c1ccc2c(c1)Cc1cc(N3C(=O)c4ccc(C(c5ccc6c(c5)C(=O)N(*)C6=O)(C(F)(F)F)C(F)(F)F)cc4C3=O)ccc1-2` (repeat unit), the CH4 permeability is 0.63 Barrer, the CO2 permeability was found to be 32.2 Barrer, the N2 permeability turned out to be 1.27 Barrer and the O2 permeability was 7.85 Barrer.
In turn, `*c1ccc2c3c(ccc2c1)OC1CC3c2c(ccc3cc(N4C(=O)c5ccc(C(c6ccc7c(c6)C(=O)N(*)C7=O)(C(F)(F)F)C(F)(F)F)cc5C4=O)ccc23)O1` (repeat unit) showed a CH4 permeability of 0.6 Barrer, a CO2 permeability of 26.3 Barrer, an H2 permeability of 60.2 Barrer and an N2 permeability of 1.1 Barrer. The same compound came in with an O2 permeability of 5.85 Barrer.
In turn, `*c1ccc2c3c(ccc2c1)OC1Oc2ccc4cc(N5C(=O)c6ccc(C(c7ccc8c(c7)C(=O)N(*)C8=O)(C(F)(F)F)C(F)(F)F)cc6C5=O)ccc4c2C31` (repeat unit) had a CH4 permeability of 0.7 Barrer, a CO2 permeability of 29.9 Barrer, an H2 permeability of 73 Barrer and an N2 permeability of 1.2 Barrer. Moreover, the O2 permeability turned out to be 7.2 Barrer.
`*c1cccc(C(c2cccc(N3C(=O)c4ccc(C(=O)c5ccc6c(c5)C(=O)N(*)C6=O)cc4C3=O)c2)(C(F)(F)F)C(F)(F)F)c1` (repeat unit): the CH4 permeability was 0.014 Barrer and the CO2 permeability was 1.05 Barrer.
`*c1cccc(N2C(=O)c3ccc(Oc4ccc5c(c4)C(=O)N(*)C5=O)cc3C2=O)c1` (repeat unit): the CH4 permeability turned out to be 0.0064 Barrer, the CO2 permeability amounted to 0.301 Barrer, the N2 permeability was determined as 0.012 Barrer and the O2 permeability is 0.081 Barrer.
`*c1cccc(Oc2cccc(-n3c(=O)c4cc5c(=O)n(*)c(=O)c5cc4c3=O)c2)c1` (repeat unit) registered a CH4 permeability of 0.008 Barrer, a CO2 permeability of 0.5 Barrer, an H2 permeability of 3.6 Barrer and an N2 permeability of 0.0181 Barrer. Besides, the O2 permeability was found to be 0.13 Barrer.
For `*c1cccc(Oc2cccc(N3C(=O)c4ccc(C(c5ccc6c(c5)C(=O)N(*)C6=O)(C(F)(F)F)C(F)(F)F)cc4C3=O)c2)c1` (repeat unit), in that order: 0.032 Barrer, 2.1 Barrer, 14 Barrer, 0.1 Barrer and 0.68 Barrer.
On to `*c1cccc(S(=O)(=O)c2cccc(N3C(=O)c4ccc(C(c5ccc6c(c5)C(=O)N(*)C6=O)(C(F)(F)F)C(F)(F)F)cc4C3=O)c2)c1` (repeat unit), for which the CH4 permeability was determined as 0.0578 Barrer, the CO2 permeability was determined as 2.34 Barrer, the N2 permeability was 0.095 Barrer and the O2 permeability was 0.73 Barrer.
